# “Also recorded” adds a separate entry of the source.
# Tests used:
# [1] = test system: Notch1 gene; assay: RT-PCR expression of Notch1 gene in SK-N-SH cells; type: cell-based, human; conditions: SAM in DM, 48 and 96 hours of culture
# Protocol: (§1) SK-N-SH human neuroblastoma cell line was cultured, respectively, in HAM F14 (14) medium supplemented with 8-% foetal calf serum (GM), in F14 medium supplemented with 1% foetal calf serum and 10 μM retinopic acid (DM) and in DM, in the presence of 100 μM SAM. The cultures were re-fed every second day with the appropriate medium. The times indicate-are referred-to medium change as O-day.
# (§2) Total RNA extraction was carried out using the acidified phenol procedure. For the expression studies by RT-PCR a reverse transcription was performed with 1 μg of total RNA using 50 pmol of oligo-d(T>)16 with 50 units of M-MuLV reverse transcriptase at 42° C. for one hour, followed by heat inactivation at 94° C. for 5 minutes. […] The subsequent amplification reactions were carried out for 20 to 30 cycles (1′ at 94° C., 1′ at annealing temperature, 1′30″ at 72° C.). The use of β-actin as internal standard allowed to control the processing of equal amount samples.
# (§3) Aliquots of the PCR products (15 μl) were examined by electrophoresis in 1.5% agarose gel. Each gel was scanned by a CCD camera and acquired on a computerised densitometer. The specificity of the fragments was assessed by restriction analysis.
# [2] = test system: β-amyloid protein precursor (APP) gene; assay: RT-PCR expression of β-amyloid protein precursor gene in SK-N-SH cells; type: cell-based, human
# Protocol: as §1, §2, §3
# [3] = test system: Adam 17 gene; assay: RT-PCR expression of Adam 17 (α-secretase) gene in SK-N-SH cells; type: cell-based, human; conditions: SAM in DM, 48 and 96 hours of culture
# Protocol: as §1, §2, §3
# [4] = test system: presenilin-2 (PS2) gene; assay: RT-PCR expression of presenilin-2 gene in SK-N-SH cells; type: cell-based, human
# Protocol: as §1, §2, §3
# [5] = test system: Adam 10 gene; assay: RT-PCR expression of Adam 10 (α-secretase) gene in SK-N-SH cells; type: cell-based, human; conditions: SAM in DM, 48 and 96 hours of culture (signal apparent only at 48 hours)
# Protocol: as §1, §2, §3
# [6] = test system: presenilin-1 protein; assay: Western blot of presenilin-1 protein in SK-N-SH cells; type: cell-based, human; conditions: DM with 100 μM SAM, 120 hours (5 days) of culture
# Protocol: as §1
# (§4) Detergent lysates were prepared from SK-N-SH cells in the presence of protease inhibitors (leupeptin, pepstatin, PMSF, 5 μg/ml each); protein extracts were performed after 5 days of culture in either GM or DM or DM supplemented with 100 μM SAM.
# (§5) 10 μg of each protein extract were run on 8% PAGE for APP analysis and on 12% PAGE for PS1 analysis, and then blotted on nitrocellulose. APP was detected by a monoclonal antibody 22C11 (Boerhinger Mannheim) recognising three major bands at 116, 110, 106 KD. PS1 was detected by a monoclonal antibody (MAB1563 Chemicon) recognising a 31 KD band.
# [7] = test system: β-secretase gene; assay: RT-PCR expression of β-secretase gene in SK-N-SH cells; type: cell-based, human
# Protocol: as §1, §2, §3
# [8] = test system: presenilin-1 (PS1) gene; assay: RT-PCR expression of presenilin-1 gene in SK-N-SH cells; type: cell-based, human
# Protocol: as §1, §2, §3
# [9] = test system: APP; assay: Western blot of APP in SK-N-SH cells; type: cell-based, human; conditions: GM, DM, DM with 100 μM SAM, 120 hours of culture
# Protocol: as §1, §4, §5
# [10] = test system: 1-40 β-amyloid peptide; assay: ELISA of 1-40 β-amyloid peptide production in SK-N-SH cell culture supernatants; type: cell-based, human; conditions: SAM in DM vs DM, supernatants after 96 and 120 hours, normalised to cell protein
# Protocol: as §1
# Cell culture supernatants were collected and frozen after 96 and 120 hours from the beginning of the culture. Successively they were concentrated using Amicon micro-concentrators according to the manufacturer instructions. 100 μl of concentrated medium were used to perform the immunoassay employing, according to the manufacturer instructions, the Biosource International kit for the detection of 1-40 amyloid. The amount of β-amyloid was normalised to the concentration of the proteins extracted from the corresponding cell lysates.
# [11] = test system: SK-N-SH human neuroblastoma cells; assay: HPLC assay of S-adenosylmethionine passage into the cells; type: in vitro ADME
# Protocol: as §1
# Cell cultures were rinsed twice with phosphate buffered saline and frozen at −80° C. After thawing cells were scraped into 1 ml of deionized water and sonified for 15 seconds in ice. The macromolecules were precipitated from 1.5 M PCA at 4° C. for 1 hour adjusting the pH at 4-5 with KOH and then centrifuged for 15 minutes at 9000×g. The supernatants were freeze-dried. The HPLC measurements were carried out using a Varian HPLC System. The samples were dissolved in water and injected onto reverse-phase column (C-18) using a water-acetonitrile mobile-phase.
# [12] = DM with 100 μM SAM, 96 hours, compared to 96 hours without SAM
# [13] = SK-N-SH cells, administration into the cell culture, RT-PCR
compound,measurement,setting,value
"C[S+](CC[C@H](N)C(=O)O)C[C@H]1O[C@@H](n2cnc3c(N)ncnc32)[C@H](O)[C@@H]1O (stereo partly drawn) [SAM, S-adenosylmethionine]",Notch1 gene expression,[1],comparable to that observed in GM at 48 hours; also recorded: does not modify
same,Notch1 gene expression,[1]; listed as S-adenosylmethionine,increased
same,APP gene expression at 48 hours,"[2]; DM with 100 μM SAM, 48 hours",accelerate the gene expression
same,APP gene expression at 96 hours,[2]; [12],did not increase and resulted inhibited
same,Adam 17 gene expression,[3],over-expression
same,Adam 17 gene expression,[3]; listed as S-adenosylmethionine,increased
same,PS2 gene expression at 48 hours,"[4]; DM with 100 μM SAM, 48 hours",accelerate the gene expression
same,PS2 gene expression at 96 hours,[4]; [12],did not increase and resulted inhibited
same,Adam 10 gene expression,[5],the same as that detectable in DM
same,Adam 10 gene expression,[5]; listed as S-adenosylmethionine,increased
same,presenilin-1 protein synthesis (Western blot),[6],marked reduction
same,β-secretase gene expression at 48 hours,"[7]; DM with 100 μM SAM, 48 hours",accelerate the gene expression
same,β-secretase gene expression at 96 hours,[7]; [12],did not increase and resulted inhibited
same,PS1 gene expression at 48 hours,"[8]; DM with 100 μM SAM, 48 hours",accelerate the gene expression
same,PS1 gene expression at 96 hours,[8]; [12],markedly down-regulated
same,APP isoforms level (Western blot),[9],did not change
same,1-40 β-amyloid peptide production,[10],reduces the same remarkably
same,1-40 β-amyloid peptide production,[10]; listed as S-adenosylmethionine,reduced
same,SAM in treated cell lysate relative to endogenous SAM,[11],6 fold
S-adenosylmethionine disulfonate,β-amyloid protein precursor gene expression,[2]; [13],block of the expression increase
same,presenilin-2 gene expression,[4]; [13],block of the expression increase
same,presenilin-1 protein synthesis (Western blot),[6],dramatic decrease
same,β-secretase gene expression,[7]; [13],block of the expression increase
same,presenilin-1 gene expression,[8]; [13],remarkable repression
